Molecular target: T1, human TMC6 protein (Homo sapiens, UniProt Q7Z403)
T1 construct: expressed in transfected cells; host or cells: CHO-K1
T1 sequence (Q7Z403 1-805): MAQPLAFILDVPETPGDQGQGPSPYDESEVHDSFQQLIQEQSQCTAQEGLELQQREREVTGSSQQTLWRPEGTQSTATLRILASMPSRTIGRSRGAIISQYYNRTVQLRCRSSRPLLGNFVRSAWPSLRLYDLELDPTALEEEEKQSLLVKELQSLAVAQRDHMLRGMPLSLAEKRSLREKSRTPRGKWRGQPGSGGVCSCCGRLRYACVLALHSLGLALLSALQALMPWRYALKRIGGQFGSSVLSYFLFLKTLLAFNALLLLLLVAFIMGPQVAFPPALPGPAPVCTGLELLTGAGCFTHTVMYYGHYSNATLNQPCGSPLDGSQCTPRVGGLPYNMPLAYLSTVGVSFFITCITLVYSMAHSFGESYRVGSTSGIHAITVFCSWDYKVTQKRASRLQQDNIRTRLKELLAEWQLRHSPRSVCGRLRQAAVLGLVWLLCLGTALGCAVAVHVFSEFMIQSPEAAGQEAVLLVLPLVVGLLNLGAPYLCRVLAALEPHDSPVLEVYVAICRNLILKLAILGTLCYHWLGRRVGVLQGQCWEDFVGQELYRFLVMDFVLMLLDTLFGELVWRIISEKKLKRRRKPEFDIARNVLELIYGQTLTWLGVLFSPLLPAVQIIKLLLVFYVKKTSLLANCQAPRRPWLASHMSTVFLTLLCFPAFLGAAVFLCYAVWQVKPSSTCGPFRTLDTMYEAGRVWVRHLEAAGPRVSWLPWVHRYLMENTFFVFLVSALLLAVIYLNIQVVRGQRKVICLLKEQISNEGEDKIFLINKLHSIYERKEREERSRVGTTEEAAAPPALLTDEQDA
Test: Calcium imaging (YC2.60 FRET) of CHO-K1 cells expressing the human TMC6 gene
Format: cell-based
Details: stimulation with high-concentration NaCl solution (135 mM NaCl)
Method: After the cultivation, the culture broth was removed. A low-concentration NaCl solution (27 mM NaCl, 1 mM KCl, 0.4 mM CaCl2, 0.2 mM MgCl2, 2 mM Hepes (pH7.3), 1 mM NaHCO3, 2 mM glucose, 2 mM sodium pyruvate, and 112 mM NMDG-Cl) was added to the culture dish, incubation was carried out statically for 5 min, and then, stimulation and observation of cells were started. First, the low-concentration NaCl solution was perfused for approximately 80 sec, to provide a ground state. […] The stimulation with the ATP stimulation solution was carried out by dropping 600 μL of the ATP stimulation solution near cells to be measured on the culture dish with a pipet within 3 sec.
Observation of the cells was carried out with a confocal laser microscope FV1200 (Olympus). […] Activation of the cells was measured using the intracellular calcium concentration as an index. The intracellular calcium concentration was measured by calcium imaging using YC2.60. YC2.60 is one of calcium-sensitive fluorescent proteins based on fluorescence resonance energy transfer (FRET). […] When calcium ions bind to YC2.60, FRET from CFP to YFP is induced, and thereby, CFP fluorescence is attenuated and YFP fluorescence is enhanced. That is, a higher intracellular calcium concentration provides a higher YFP/CFP value of a cell, which value represents the ratio of YFP fluorescence intensity with respect to CFP fluorescence intensity. […]

[Cl-].[Na+] [NaCl, sodium chloride]
change of YFP/CFP value (intracellular calcium concentration, cell activation): increase
